From patent US20240390377A1, “COMPOSITION FOR THE PREVENTION OR TREATMENT OF NEURODEGENERATIVE OR MOTOR NEURON DISEASES COMPRISING HALOFUGINONE AS AN ACTIVE INGREDIENT” (CURAMYS CO., LTD., priority 2022, published 2024)

Tested on: C2C12 cells
Assay: Western blot analysis of C2C12 myoblasts (TGF-β1 stimulation, halofuginone treatment)
Assay type: cell-based, mouse
Protocol: Specifically, C2C12 cells (CRL-1772) were purchased from the American Type Culture Collection (ATCC) and maintained in DMEM medium (Welgene) containing 10% (v/v) fetal bovine serum (FBS; Gibco) and 1% penicillin-streptomycin (P/S; Gibco) at 37° C. under 5% CO2 conditions. The C2C12 cells were seeded in 6-well plates at a density of 3×10^5 cells per well and allowed to adhere for 24 hours. Subsequently, the medium was replaced with serum-free medium after 24 hours, followed by stimulation with 5 ng/ml rhTGF-β1 (recombinant human TGF-β1; R&D Systems). After stimulation, the cells were treated with various concentrations (0 [control], or 1, 2.5, 5 [low dose], 10 [high dose], 20, 50, 100 ng/ml) of halofuginone (Sigma) in serum-free medium for 24 hours.
Specifically, the lumbar spinal cord or knee joint of the mouse of Example 6 was separated and immediately frozen at −80° C. Each lumbar spinal cord or knee joint was then homogenized and chemically treated to obtain cells. The chemically treated cells, the C2C12 cells of Example 1 or the fibroblasts of Example 5 were dissolved in a RIPA buffer (Thermo, MA, USA) with a protease inhibitor and a phosphatase inhibitor (Roche, IN, USA) and incubated on ice for 30 minutes. After centrifugation of the lysate at 13,000 rpm at 4° C. for 20 min, insoluble substances were removed. Protein concentrations were measured by BCA analysis (Pierce Biotechnology). Equal volumes of cell lysate were loaded onto SDS-PAGE gels for electrophoresis, and transferred onto nitrocellulose membranes (Amersham Protran 0.2 um NC, Amersham Pharmacia Biotech, Piscataway, NJ, USA). The membranes were then blocked with 5% (w/v) skimmilk in 1×TBST for 1 h at room temperature. After blocking, anti-RB-actin antibody (1:5000; Santa Cruz, cat #sc47778), anti-Smad2 antibody (1:1000; Cell Signaling, cat #5339), anti-p-Smad2 antibody (1:1000; Cell Signaling, cat #3108), anti-TGF-β1 antibody (1:1000; Santa Cruz, cat #sc130348), anti-α-SMA antibody (1:10000; abcam cat #ab7817), anti-MyoD antibody (1:1000; cat #sc377460), anti-collagen|antibody (1:1000; abcam cat #ab21286), anti-cleaved caspase-3 antibody (1:1000; Cell Signaling, cat #9661), anti-bax antibody (1:500; Santa Cruz, cat #sc493), anti-bcl2 antibody (1:1000; Novus Biologics, cat #NB100-56098), anti-ChAT antibody (1:1000; Millipore, cat #AB144) were treated and incubated overnight at 4° C. Subsequently, membranes were washed several times with 1×TBST and incubated with horseradish peroxidase-conjugated secondary antibodies (anti-mouse, rabbit or goat, 1:5000; GE Healthcare) in blocking buffer for 1 h at room temperature (RT). The membranes were then washed, briefly incubated with the SuperSignal West Pico Plus Chemical Substructure (Pierce Biotechnology) according to the manufacturer's procedure, and quantified with an image analyzer (Amersham Pharmacia Biotech, Piscataway, NJ, USA). β-actin was used as an internal control group. The concentration measurement of protein intensity was quantified using Image J (National Institutes of Health).
Specifically, after treating C2C12 cells with TGF-β1 for 24 hours as in Example 1, real-time qRT-PCR was performed in the same manner as in Example 11 to confirm TGF-β1, 2 and 3, α-SMA and MyoD mRNA expression (FIG. 2a), and Western blot analysis was performed in the same manner as in Example 12 to confirm autocrine expression of TGF-β1 and MyoD protein and α-SMA (FIG. 2b).
Specifically, C2C12 cells were treated with halofuginone after TGF-β1 stimulation or no stimulation in the same manner as described in Example 2, and cell viability analysis was performed through CCK-8 analysis (FIGS. 3a and 3b), and Western blot analysis was performed in the same manner as described in Example 12 to confirm autocrine expression of p-Smad2, Smad2, TGF-β1, MyoD, collagen I protein and α-SMA (FIG. 3c). […]

[1] = halofuginone 5 ng/ml and 10 ng/ml, 24 h after TGF-β1 stimulation (FIG. 3c)

SMILES: O=C(C[C@H]1NCCC[C@@H]1O)Cn1cnc2cc(Br)c(Cl)cc2c1=O (racemic) [halofuginone]
- decrease in MyoD protein level by TGF-β1 stimulation [1]: significantly recovered
- increase in TGF-β1 protein level by TGF-β1 stimulation [1]: significantly reduced
- increase in collagen I protein level by TGF-β1 stimulation [1]: significantly reduced
- increase in p-Smad2/Smad2 ratio by TGF-β1 stimulation [1]: significantly reduced
- increase in α-SMA protein level by TGF-β1 stimulation [1]: significantly reduced
- TGF-β1, α-SMA, MyoD and collagen I protein expression, compared with the mRNA result (low or high concentration halofuginone, 24 h after TGF-β1 stimulation (FIG. 4b)): the same
